Assay results published in patent US20250326771A1, “PIPERAZINE DERIVATIVES USEFUL IN HIV THERAPY” (VIIV HEALTHCARE COMPANY, priority 2022, published 2025).

Assays:
cIAP2-BIR3 = cIAP2-BIR3 (Homo sapiens (Human), UniProt Q13489); test: BIR binding assay (FRET competition), cIAP2 BIR3
Description: (§1) The BIR domain binding assays are FRET based competition assays that utilize His-tagged versions of each of the BIR2 and BIR3 domains from cIAP1, cIAP2, and XIAP (each domain assayed separately) each at a custom optimal concentration and a probe, 200 nM SMAC/DIABLO peptide […] labelled with AlexaFluor647 (part #crb 1110326h, Discovery Peptides). The assay is conducted in 50 mM HEPES, […], 1 mM CHAPS, 5% Glycerol, 1 mM DTT, in dI water with a final pH of 7.4 and final volume of 20 uL. Final protein domain concentrations are: 50 nM cIAP1-BIR3 (Part #APT-11-370 Reaction Biology), 100 nM XIAP-BIR3 (Part #APT-11-351 Reaction Biology), 200 nM XIAP-BIR2 (Part #APT-11-470 Reaction Biology), 325 nM cIAP2-BIR2 (Part #APT-11-489 Reaction Biology), 50 nM cIAP2-BIR3 (Part #APT-11-372 Reaction Biology), 325 nM cIAP1-BIR2 (Part #APT-11-487 Reaction Biology). Compounds were plated using a HP Tecan D300 printer in a final total volume of 202 nl and DMSO concentration normalized across the 15-point, 3-fold dilution series. Peptide and probe were prepared at 2× relative to the concentrations above in binding buffer, 10 uL added to the prepared compound plates, and incubated for 60 minutes. LANCE Eu-W1024 (part #AD0401 Perkin Elmer #, vendor) was prepared at 2× concentration in binding buffer for final concentration of 2 nM, 10 uL added to each well, and plates incubated for 30 minutes. Plates were read on an ENVISION multifunction plate reader with […] laser excitation to obtain the 615 nm/665 nm emission ratio as indicative of probe:protein proximity. Data was analyzed using GraphPad PRISM and curves fit using log(inhibitor) vs. response—Variable slope (four […] method to obtain IC50 and pIC50 values.

cIAP1-BIR3 = cIAP1-BIR3 (Homo sapiens (Human), UniProt Q13490); test: BIR binding assay (FRET competition), cIAP1 BIR3
Description: as §1

XIAP-BIR3 = XIAP-BIR3 (Homo sapiens (Human), UniProt P98170); test: BIR binding assay (FRET competition), XIAP BIR3
Description: as §1

[1] = system: Jurkat HIV-luciferase clones; test: Jurkat latency reversal assay; assay type: cell-based; conditions: Homo sapiens, 48 h; Jurkat latency reversal assay potency; read-out: Jurkat pEC50 (converted)
Description: Jurkat HIV-luciferase clones were maintained in RPMI medium 1640 (Gibco by Life Technologies) containing 10% (vol/vol) fetal bovine serum (SAFC/Sigma-Aldrich) and 25 units/mL penicillin, 25 units/mL streptomycin (Gibco by Life Technologies), and were split 1:4 every 3 to 4 days to maintain a cell density of ˜0.3 to 1 million cells/mL. The Jurkat clones were maintained with the addition of 500 nM EFV in the medium. Three Jurkat cell clones (C16, 115, and N6), each harboring one or two integrated HIV proviruses expressing the luciferase reporter gene, were added at equal amounts for a total of 5,000 cells per well to 384-well plates containing compound titrations. Dose-response testing was performed on compounds dissolved in dimethyl sulfoxide (DMSO; Fisher Scientific, Merelbeke, Belgium) dispensed in duplicate serial 3-fold, 14-point titrations using a D300e Digital Droplet Dispenser (Hewlett-Packard) to give final assay concentrations of 10 μM to […] in 50 μL of medium at 0.5% DMSO (vol/vol) final concentration. Cells and compound were incubated at 37° C. for 48 hours, unless otherwise indicated, followed by the addition of 20 μL of Steady-Glo® Luciferase (Promega). Luminescence resulting from the induction of the virally expressed luciferase was measured using an EnVision 2102 Multilabel Plate Reader (Perkin Elmer). Dose-response relationships were analyzed with GraphPad PRISM 6 using a four-parameter logistic regression model to calculate the concentration of compound that gives half-maximal response (EC50) and the maximal percent activation compared to the vehicle control.

XIAP-BIR3, sequence (P98170 241-356): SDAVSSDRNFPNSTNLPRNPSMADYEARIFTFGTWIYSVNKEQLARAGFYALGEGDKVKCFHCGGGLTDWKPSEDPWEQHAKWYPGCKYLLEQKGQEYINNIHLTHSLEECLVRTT
cIAP1-BIR3, sequence (Q13490 253-363): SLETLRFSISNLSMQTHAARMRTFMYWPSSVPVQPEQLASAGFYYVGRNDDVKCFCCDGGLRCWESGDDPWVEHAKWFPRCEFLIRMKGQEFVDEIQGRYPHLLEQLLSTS
cIAP2-BIR3, sequence (Q13489 238-349): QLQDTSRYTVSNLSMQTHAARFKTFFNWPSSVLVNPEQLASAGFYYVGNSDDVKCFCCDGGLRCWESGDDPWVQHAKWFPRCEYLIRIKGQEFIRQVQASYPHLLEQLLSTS

Row | SMILES | IC50 (cIAP2-BIR3) [nM] | IC50 (cIAP1-BIR3) [nM] | IC50 (XIAP-BIR3) [nM] | EC50 [1] [nM]
1 | C[C@@H]1CN(CC(=O)N2CC(C)(C)c3[nH]c(=O)c(Cc4ccc(F)cc4)cc32)[C@@H](CN2CCO[C@H](COc3ccc(C(C)(C)c4cccc(C(C)(C)c5ccc(OC[C@@H]6CN(C[C@H]7CN[C@H](C)CN7CC(=O)N7CC(C)(C)c8[nH]c(=O)c(Cc9ccc(F)cc9)cc87)CCO6)cc5)c4)cc3)C2)CN1 (stereo in doubt) [Example 61, 1,1′-(2,2′-((3R,3′R,6R,6′R)-(((2S,2'S)-((((1,3-phenylenebis(propane-2,2-diyl))bis(4,1-phenylene))bis(oxy))bis(methylene))bis(morpholine-2,4-diyl))bis(methylene))bis(3-methylpiperazine-6,1-diyl))bis(acetyl))bis(6-(4-fluorobenzyl)-3,3-dimethyl-1,2,3,4-tetrahydro-5H-pyrrolo[3,2-b]pyridin-5-one)] | 31.6 to 501 | 31.6 to 501 | 31.6 to 501 | 12.6 to 63.1
2 | COc1cc(Cl)ccc1Cc1cc2c([nH]c1=O)C(C)(C)CN2C(=O)CN1C[C@@H](C)NC[C@@H]1CN1CCO[C@H](C(=O)NCc2ccc(CNC(=O)[C@@H]3CN(C[C@H]4CN[C@H](C)CN4CC(=O)N4CC(C)(C)c5[nH]c(=O)c(Cc6ccc(Cl)cc6OC)cc54)CCO3)cc2)C1 [Compound 169, (2S,2′S)-N,N′-(1,4-phenylenebis(methylene)) bis(4-(((2R,5R)-1-(2-(6-(4-chloro-2-methoxybenzyl)-3,3-dimethyl-5-oxo-2,3,4,5-tetrahydro-1H-pyrrolo[3,2-b]pyridin-1-yl)-2-oxoethyl)-5-methylpiperazin-2-yl)methyl)morpholine-2-carboxamide)] | 1.38 to 7.94 | 7.94 to 15.8 | 31.6 to 501 | 12.6 to 63.1
3 | C[C@@H]1CN(CC(=O)N2CC(C)(C)c3[nH]c(=O)c(Cc4ccc(Cl)cc4Cl)cc32)[C@@H](CN2CCO[C@H](COc3cccc(OC[C@@H]4CN(C[C@H]5CN[C@H](C)CN5CC(=O)N5CC(C)(C)c6[nH]c(=O)c(Cc7ccc(Cl)cc7Cl)cc65)CCO4)c3)C2)CN1 [Compound 187] | 7.94 to 15.8 | 7.94 to 15.8 | 31.6 to 501 | 0.49 to 12.6
4 | C[C@@H]1CN(CC(=O)N2CC(C)(C)c3[nH]c(=O)c(Cc4ccc(F)cc4)cc32)[C@@H](CN2CCN(S(=O)(=O)c3ccc(Oc4ccc(S(=O)(=O)N5CCN(C[C@H]6CN[C@H](C)CN6CC(=O)N6CC(C)(C)c7[nH]c(=O)c(Cc8ccc(F)cc8)cc76)[C@H](C)C5)cc4)cc3)C[C@H]2C)CN1 [Example 30, 2,2′-((3R,3′R,6R,6′R)-(((2R,2′R)-(oxybis(4,1-phenylenesulfonyl))bis(2-methylpiperazine-4,1-diyl))bis(methylene))bis(3-methylpiperazine-6,1-diyl))bis(1-(6-(4-fluorobenzyl)-3,3-dimethyl-5-oxo-2,3,4,5-tetrahydro-1H-pyrrolo[3,2-b]pyridin-1-yl)ethan-1-one)] | 15.8 to 31.6 | 31.6 to 501 | 31.6 to 501 | 316 to 3310
5 | C[C@@H]1CN(CC(=O)N2CC(C)(C)c3[nH]c(=O)c(Cc4ccc(F)cc4)cc32)[C@@H](CN2CCO[C@H](COc3ccc(-c4ccc(OC[C@@H]5CN(C[C@H]6CN[C@H](C)CN6CC(=O)N6CC(C)(C)c7[nH]c(=O)c(Cc8ccc(F)cc8)cc76)CCO5)cc4)cc3)C2)CN1 [Example 50, 1,1′-(2,2′-((3R,3′R,6R,6′R)-(((2S,2'S)—(([1,1′-biphenyl]-4,4′-diylbis(oxy))bis(methylene))bis(morpholine-2,4-diyl))bis(methylene))bis(3-methylpiperazine-6,1-diyl))bis(acetyl))bis(6-(4-fluorobenzyl)-3,3-dimethyl-1,2,3,4-tetrahydro-5H-pyrrolo[3,2-b]pyridin-5-one)] | 1.38 to 7.94 | 1.38 to 7.94 | 1.38 to 7.94 | 0.49 to 12.6
6 | C[C@@H]1CN(CC(=O)N2CC(C)(C)c3[nH]c(=O)c(Cc4ccc(F)cc4)cc32)[C@@H](CN2CCO[C@H](COc3ccc(Cc4ccc(OC[C@@H]5CN(C[C@H]6CN[C@H](C)CN6CC(=O)N6CC(C)(C)c7[nH]c(=O)c(Cc8ccc(F)cc8)cc76)CCO5)cc4)cc3)C2)CN1 [Example 53, 1,1′-(2,2′-((3R,3′R,6R,6′R)-(((2S,2'S)-(((methylenebis(4,1-phenylene))bis(oxy))bis(methylene))bis(morpholine-2,4-diyl))bis(methylene))bis(3-methylpiperazine-6,1-diyl))bis(acetyl))bis(6-(4-fluorobenzyl)-3,3-dimethyl-1,2,3,4-tetrahydro-5H-pyrrolo[3,2-b]pyridin-5-one)] | 31.6 to 501 | 31.6 to 501 | 31.6 to 501 | 12.6 to 63.1
7 | C[C@@H]1CN(CC(=O)N2CC(C)(C)c3[nH]c(=O)c(Cc4ccc(F)cc4)cc32)[C@@H](CN2CCO[C@H](COc3ccc(C(=O)c4ccc(OC[C@@H]5CN(C[C@H]6CN[C@H](C)CN6CC(=O)N6CC(C)(C)c7[nH]c(=O)c(Cc8ccc(F)cc8)cc76)CCO5)cc4)cc3)C2)CN1 [Example 54, 1,1′-(2,2′-((3R,3′R,6R,6′R)-(((2S,2'S)-(((carbonylbis(4,1-phenylene))bis(oxy))bis(methylene))bis(morpholine-2,4-diyl))bis(methylene))bis(3-methylpiperazine-6,1-diyl))bis(acetyl))bis(6-(4-fluorobenzyl)-3,3-dimethyl-1,2,3,4-tetrahydro-5H-pyrrolo[3,2-b]pyridin-5-one)] | 15.8 to 31.6 | 15.8 to 31.6 | 15.8 to 31.6 | 0.49 to 12.6
8 | C[C@@H]1CN(CC(=O)N2CC(C)(C)c3[nH]c(=O)c(Cc4ccc(F)cc4)cc32)[C@@H](CN2CCO[C@H](COc3ccc(C(C)(C)c4ccc(OC[C@@H]5CN(C[C@H]6CN[C@H](C)CN6CC(=O)N6CC(C)(C)c7[nH]c(=O)c(Cc8ccc(F)cc8)cc76)CCO5)cc4)cc3)C2)CN1 [Example 56, 1,1′-(2,2′-((3R,3′R,6R,6′R)-(((2S,2'S)-(((propane-2,2-diylbis(4,1-phenylene))bis(oxy))bis(methylene))bis(morpholine-2,4-diyl))bis(methylene))bis(3-methylpiperazine-6,1-diyl))bis(acetyl))bis(6-(4-fluorobenzyl)-3,3-dimethyl-1,2,3,4-tetrahydro-5H-pyrrolo[3,2-b]pyridin-5-one)] | 31.6 to 501 | 31.6 to 501 | 31.6 to 501 | 12.6 to 63.1
9 | C[C@@H]1CN(CC(=O)N2CC(C)(C)c3[nH]c(=O)c(Cc4ccc(F)cc4)cc32)[C@@H](CN2CCC(CCCOc3cccc(OCCCC4CCN(C[C@H]5CN[C@H](C)CN5CC(=O)N5CC(C)(C)c6[nH]c(=O)c(Cc7ccc(F)cc7)cc65)CC4)c3)CC2)CN1 [Example 109, 1,1′-(2,2′-((3R,3′R,6R,6′R)-((((1,3-phenylenebis(oxy))bis(propane-3,1-diyl))bis(piperidine-4,1-diyl))bis(methylene))bis(3-methylpiperazine-6,1-diyl))bis(acetyl))bis(6-(4-fluorobenzyl)-3,3-dimethyl-1,2,3,4-tetrahydro-5H-pyrrolo[3,2-b]pyridin-5-one)] | 7.94 to 15.8 | 15.8 to 31.6 | – | 12.6 to 63.1
